{"source": "patent US12673039B2", "about": "“Methods of inducing autophagy using coumarin derivatives and related compounds” (Buck Institute for Research on Aging, priority 2019, dated 2026)", "system": "C. elegans", "assay": "Autophagic flux and lysosomal reporters in C. elegans", "type": "in vivo", "description": "FIGS. 12A-12B illustrate that coumarin 106 (“C1”, “AIC106”) promotes induction of autophagic markers. FIG. 12A) Increased APG:APL fusion as assessed by green to red fluorescence shift following addition of 20 μM C1 versus DMSO-only control to ttdLGG-1:GFP worms expressing a pH sensitive GFP. FIG. 12B) Increases in autophagic flux as assessed by increased GFP fluorescence within p62::GFP and plmp-1::GFP expressing worms following addition of 20 μM C1 versus DMSO-only controls.\nFIG. 19, panels A-G: AIC106 increases autophagic flux and lysosomal function in C. elegans. Panel A) Relative fold change in mRNA of autophagosome-specific protein p62/Sqstm-1 compared to DMSO-control was quantified using qRT-PCR in young adult wild-type N2 worms post-24 hours treatment with AIC106. [N=3 independent experiments (mean±SD). *p<0.05 and **p<0.01, by one-way ANOVA with Sidak's multiple comparisons test]. Panel B) Changes in p62/SQSTM-1 expression were measured by quantifying GFP intensity in an individual GFP-tagged p62/SQSTM-1 worm (HZ589) post-24 hours treatment with AIC106 and DMSO-control, followed by RNAi treatment. [N=3 independent experiments (mean±SD). ****p<0.0001, by one-way ANOVA with Tukey's multiple comparisons test]. Panel C) p62/SQSTM-1; GFP (HZ589) was monitored by fluorescence microscopy. Panel D) Changes in lysosomal number were measured by quantifying GFP intensity in an individual GFP-tagged LMP-1 worm (RT258) post-24 hours treatment with AIC106 and DMSO-control. [N=3 independent experiments (mean±SD). ****p<0.0001, by unpaired t-test]. Panel E) RT258 worms were monitored by fluorescence microscopy. Panel F) Changes in lysosomal number were measured by quantifying fluorescence intensity in an individual Lysotracker Red stained wild type N2 worms post-24 hours treatment with AIC106 and DMSO-control. [N=3 independent experiments (mean±SD). ****p<0.0001, by unpaired t-test]. Panel G) Lysotracker Red stained wild type N2 worms were monitored by fluorescence microscopy.\nFIG. 26, panels A-B: AIC106 enhances autophagy flux in C. elegans. Panel A) Monitoring of tandem reporter lgg-1p::mCherry::GFP::lgg-1 expressing worms was performed by fluorescence microscopy. Panel B) Effects of AIC106 treatment on GFP and mCherry by time were measured by fluorescence microscopy after AIC106 or DMSO-control treatment for 24 h. [N=3 independent experiments (mean±SD). *p<0.05 and **p<0.01, by unpaired t-test].\nSynchronized populations of day-1 adult worms expressing reporter GFP transgene or stained with a dye/stain (Lysotracker and TMRM) and grown at 20° C. were transferred to compound or DMSO plates. Fluorescence expression was analyzed at the time specified for each individual strain (see figure legends). Worms were paralyzed in 2 mM levamisole, mounted on 2% agarose pads with glass cover slips, and imaged immediately with an Axio Zeiss microscope. Appropriate filters were used to visualize GFP, Lysotracker red and TMRM were visualized under rhodamine filter. Approximately 20-40 worms per treatment were used. Fluorescence intensity normalized to worm area was measured using NIH ImageJ software. Transgenic reporters used in the study are HZ589 him-5(e1490) V; bpIs151[sqst-1p::sqst-1::GFP+unc-76(+)], RT258 unc-119(ed3) III; pwIs50 [lmp-1::GFP+Cbr-unc-119(+)], UA44 UA44(baIn11[Pdat-1::α-syn, Pdat-1::GFP]), AM141 rmIs133 [unc-54p::Q40::YFP]LAMP-1:GFP.\nSynchronized day-1 adult N2 worms were transferred to DMSO control or compound treated plates for 24 hours at 20° C. On day-2, worms were transferred to 35 mm OP50 seeded assay plates treated with compound or DMSO plates overlaid with 1 μM LysoTracker™ Red DND-99 (Molecular Probes) for 24 hours at 20° C. Post-24 hours on LysoTracker stain, worms were picked and washed in a fresh drop of 1×M9 medium to remove excess stain and mounted on 2% agarose pad slides for microscopic visualization. Worm images were taken in a Zeiss Imager Z1 fluorescence microscope using rhodamine filters. […]"}
{"smiles": "O=c1oc2c3c4c(cc2c2c1CCC2)CCCN4CCC3", "note": "[C1, 2,3,6,7,10,11-Hexahydro-1H,5H-cyclopenta(3,4)(1)benzopyrano(6,7,8-ij)quinolizin-12(9H)-one]", "values": [{"measurement": "autophagic flux", "setting": "20 μM C1 (FIG. 12)", "value": "increased autophagic flux"}, {"measurement": "tandem mCherry-GFP-LGG-1 reporter (autophagosomal:lysosomal fusion)", "setting": "24 h (FIG. 26)", "value": "decreased GFP intensity in conjunction with significant increase in mCherry-only intensity"}, {"measurement": "p62/SQSTM-1 protein levels (GFP)", "setting": "HZ589 worms, 24 hours", "value": "enhanced p62/SQSTM-1 protein levels"}, {"measurement": "lysosomal biogenesis by LysoTracker red staining", "setting": "N2 worms", "value": "validated via LysoTracker red staining"}, {"measurement": "p62/Sqstm-1 mRNA", "setting": "N2 worms, 24 hours", "value": "increased mRNA levels of p62/Sqstm-1"}, {"measurement": "lysosomal biogenesis (GFP-tagged LAMP-1/LMP-1)", "setting": "RT258 worms, 24 hours", "value": "increase in lysosomal biogenesis"}]}
